Where two headings read alike, the source gives them in different places.
Columns and labels:
[1] = molecular target: T1, SIRT1 (Homo sapiens, UniProt Q96EB6); assay: DMSO tolerance of SIRT1 mass spectrometry assay; assay type: biochemical
T1 sequence (Q96EB6 1-747): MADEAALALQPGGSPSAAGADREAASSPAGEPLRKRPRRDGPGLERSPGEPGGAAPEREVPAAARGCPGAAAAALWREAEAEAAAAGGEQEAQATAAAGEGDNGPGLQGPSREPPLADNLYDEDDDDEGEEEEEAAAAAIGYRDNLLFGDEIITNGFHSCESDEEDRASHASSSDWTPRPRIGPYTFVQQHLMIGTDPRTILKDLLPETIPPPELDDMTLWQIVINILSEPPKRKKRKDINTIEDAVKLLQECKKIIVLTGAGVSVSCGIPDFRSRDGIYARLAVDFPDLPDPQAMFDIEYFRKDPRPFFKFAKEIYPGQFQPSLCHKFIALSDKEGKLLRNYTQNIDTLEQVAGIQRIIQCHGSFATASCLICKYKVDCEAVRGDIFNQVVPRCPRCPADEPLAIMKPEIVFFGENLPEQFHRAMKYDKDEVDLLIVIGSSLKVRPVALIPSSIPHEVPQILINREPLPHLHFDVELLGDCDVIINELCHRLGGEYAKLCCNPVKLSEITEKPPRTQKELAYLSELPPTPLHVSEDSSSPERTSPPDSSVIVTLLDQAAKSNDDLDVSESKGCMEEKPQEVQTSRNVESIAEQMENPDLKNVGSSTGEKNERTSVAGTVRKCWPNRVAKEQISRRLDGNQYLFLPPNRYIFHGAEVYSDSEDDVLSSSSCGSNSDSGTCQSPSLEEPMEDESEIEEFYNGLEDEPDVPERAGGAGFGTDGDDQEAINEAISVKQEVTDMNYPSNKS
Description: To determine the tolerance of the SIRT1 mass spectrometry assay for DMSO, a rate based experiment was performed at multiple concentrations of DMSO.
Formic acid (10 μL of 10%) was added to all of the wells in column 1 of the 96 well assay plate. Eight concentrations of DMSO (40%, 20%, 10%, 5.0%, 2.5%, 1.25%, 0.625%, and 0.313%) were prepared in buffer containing 50 mM Tris HCl pH 8.0, 137 mM, NaCl, 2.7 mM, KCl, 1 mM MgCl2, 5 mM DTT, and 0.05% BSA.
This DMSO titration was prepared by making a 2000 μL solution of 40% DMSO in 50 mM Tris HCl pH 8.0, 137 mM, NaCl, 2.7 mM, KCl, 1 mM MgCl2, 5 mM DTT, and 0.05%. BSA in well A1 of a Costar 2 mL 96 well Assay Block. Dilution Working Solution (1000 μL; 50 mM Tris HCl pH 8.0, 137 mM, NaCl, 2.7 mM, KCl, 1 mM MgCl2, 5 mM DTT, and 0.05% BSA) was added to wells B1, C1, D1, E1, F1, G1 and H1. 1000 μL of the 40% DMSO in buffer solution was transferred from A1 to […] and the solution was mixed 5 times. This process was repeated with wells in column 1 until well H1 was reached.
Using an 8 channel multi-pipette, 50 μl was transferred from column 1 of the 2 mL 96 well assay block to all columns of a 96 well assay plate.
25 μL of Enzyme Working Solution (40 nM SIRT1, 50 mM Tris HCl pH 8.0, 137 mM, NaCl, 2.7 mM, KCl, 1 mM MgCl2, 5 mM DTT, and 0.05% BSA) was prepared and added to each well of the 96-well round bottom assay plate. […]
At 0, 2, 5, 10, 15, 20, 25, 25, 30, 35, 40, 45, and 60 minutes, the reaction was stopped with 10% formic acid and the conversion of substrate to product was determined by mass spectrometry. The activity of SIRT1 at each concentration of DMSO was monitored by comparing the percent conversion of Acetylated Peptide Substrate to Deacetylated Peptide Product over time. […]
Product formation versus time was plotted for each concentration of DMSO tested. The rate was determined by taking the slope from the linear part of the time course. […]

[2] = molecular target: T1, SIRT1; assay: SIRT1 mass spectrometry assay (screening for activation); assay type: biochemical; settings: for FOLD ACTIVATION MS: activation of SIRT1, mass spectrometry; for EC50: activation of SIRT1, 0.5 μM peptide substrate (SEQ ID NO: 34), 120 μM NAD+, 10 nM SIRT1, 25 min, read-out: ED50 MS ASSAY
[3] = test system: NCI-H358 cells; assay: Cellular ATP Assay (ATPLite 1Step normalized to AlamarBlue viability); assay type: cell-based, human; settings: compounds that raised intracellular ATP levels, 48 hours, read-out: ED50 ATP ASSAY
Description: Cellular ATP levels are an indirect measurement of cellular metabolic rates and, by extension, mitochondrial function. […] The ATP assay is combined with a cellular viability assay so that cellular ATP levels can be normalized to viable cells. Cellular ATP levels were measured using the ATPLite 1Step Kit (PerkinElmer) and cellular viability was measured using the cell permeable dye, AlamarBlue™.
The Cellular ATP Assay is a multiplexed assay that measures both ATP levels and viability of a given cell sample. This assay is run in a 96-well Assay Plate and data are reported as the [ATP]/viability for each well in the Assay Plate.
The ATPLite 1Step™ Kit is a single-step luminescent cell-based assay for detection of ATP. The kit contains lyophilized substrate mixture, comprised of D-luciferin and the firefly (Photinus pyralis) enzyme luciferase. Additionally, the kit contains a detergent-based reconstitution buffer that induces the lysis of cellular membranes. The luciferase in the assay mixture catalyzes a reaction between the free cellular ATP and D-luciferin to produce bioluminescence according to the schematic reaction outlined below. […]
The AlamarBlue™ Assay is a single-step assay that utilizes a soluble, non-toxic, cell permeable dye that is added to cell growth media. […] The reduced dye product gives a fluorescent signal which can be monitored with a fluorescence plate reader (excitation 545 nm and emission 575 nm). The amount of fluorescence generated in a given well is proportional to the number of viable cells. […]
In this assay NCI-H358 cells (obtained from the American Tissue Culture Collection, ATCC) were seeded in 96 well microplates (10^4 cells/well). […] Cell microplates were incubated with dye for 2 hours under growth conditions, and fluorescence was subsequently measured using a plate reader. […] Luminescence was then measured using a plate reader. The ATP signal for each well, measured by the luminescence scan, was normalized to its corresponding cell viability value, measured by the fluorescence scan, to generate the average ATP level per viable cell unit (ATP/vCell). […]

Structure (SMILES) | FOLD ACTIVATION MS [2] | EC50 [2] [µM] | further results
C[S+](C)[O-] [DMSO] |  |  | decrease of SIRT1 enzyme activity ([1]; 0.625% DMSO): 9.1%; decrease of SIRT1 enzyme activity ([1]; 1.25% DMSO): 21%; decrease of SIRT1 enzyme activity ([1]; 2.5% DMSO): 36%
Cc1nc(-c2cccc(Nc3nc4ccccc4s3)c2)cs1 [compound 94] | B (Fold Activation<250%) | < 50 | EC50 ([3]; Homo sapiens, NCI-H358): > 150 µM
COc1cccc(OC)c1C(=O)Nc1cccc(-c2nc3ccccc3s2)c1 [compound 120] |  |  | EC50 [3]: < 50 µM
O=C(NNc1c2ccccc2nc2ccccc12)c1cccnc1 [compound 11] |  |  | EC50 ([3]; Homo sapiens, NCI-H358): < 50 µM
CN(C)c1cccc(C(=O)Nc2ccc(-c3nc4cccnc4[nH]3)cc2)c1 [compound 180] | B (Fold Activation<250%) |  | 
c1cc(Nc2nc3ccccc3o2)cc(-c2nc3ncccc3o2)c1 [compound 93] | B (Fold Activation<250%) |  | 
COc1ccc(NC(=O)c2cccc(-c3nc4ncccc4o3)c2)cc1OC [compound 101] | A (Fold activation>250%) |  | 
CN(C)c1cccc(C(=O)Nc2ccc(-c3nc4ncccc4s3)cc2)c1 [compound 196] | B (Fold Activation<250%) |  | 
COc1ccc(C(=O)Nc2cc(CN(C)C)cc(-c3nc4ncccc4o3)c2)cc1OC [compound 156] | B (Fold Activation<250%) |  | 
O=C(Nc1cccc(-c2nc3ccncc3s2)c1)c1ccc(-c2ccccc2)o1 [compound 241] | B (Fold Activation<250%) | < 50 | 
COc1ccc(C(=O)Nc2cc(CN(C)C)cc(-c3nc4ncccc4o3)c2)c(OC)c1 [compound 158] | B (Fold Activation<250%) |  | 
COc1ccc(C(=O)Nc2cccc(-c3nc4ccccc4[nH]3)c2)c(OC)c1 [compound 211] | B (Fold Activation<250%) | < 50 | 
COc1ccc(C(=O)Nc2ccccc2-c2cn3ccccc3n2)c(OC)c1 [compound 265] | B (Fold Activation<250%) |  | 
COc1ccc(C(=O)Nc2cc(CN3CCNCC3)cc(-c3nc4ncccc4o3)c2)c(OC)c1 [compound 161] | A (Fold activation>250%) |  | 
COc1cc(C(=O)Nc2cccc(-c3nc4cnccc4s3)c2)cc(OC)c1OC [compound 273] | A (Fold activation>250%) |  | 
COc1ccc(C(=O)Nc2ccccc2-c2nc3ccncc3s2)cc1OC [compound 162] | B (Fold Activation<250%) | < 50 | 
O=S(=O)(Nc1cccc(-c2nc3ccncc3s2)c1)c1ccc(OC(F)(F)F)cc1 [compound 239] | B (Fold Activation<250%) | < 50 | 
COc1ccc(C(=O)Nc2cc(C(=O)N3CCNCC3)cc(-c3nc4ncccc4o3)c2)cc1OC [compound 164] | B (Fold Activation<250%) |  | 
COc1ccc(C(=O)Nc2cc(CN3CCNCC3)cc(-c3nc4ncccc4o3)c2)cc1OC [compound 159] | B (Fold Activation<250%) |  | 
Cc1cc(C(=O)Nc2cccc(-c3nc4ccncc4s3)c2)n(C(C)(C)C)n1 [compound 228] | A (Fold activation>250%) |  | 
COc1cc(C(=O)Nc2ccccc2-c2cn3ccsc3n2)cc(OC)c1OC [compound 204] | A (Fold activation>250%) | < 50 | 
COc1ccc(C(=O)Nc2ccccc2-n2cccc2)cc1OC [compound 175] | B (Fold Activation<250%) |  | 
CN(C(=O)Nc1ccccc1-c1nc2ccccc2[nH]1)c1ccccc1 [compound 169] | B (Fold Activation<250%) | < 50 | 
COc1ccc(C(=O)Nc2cccc(-c3nc4ncccc4s3)c2)c(OC)c1 [compound 202] | B (Fold Activation<250%) | < 50 | 
COc1ccc(C(=O)Nc2ccccc2-c2cn3cc(CN4CCNCC4)sc3n2)cc1OC [compound 270] | A (Fold activation>250%) |  | 

— US8304206B2, “Mass spectrometry assays for identifying compounds that activate deacetylases” (Sirtris Pharmaceuticals, Inc., priority 2005, dated 2012)
